Data as given in patent publication US20230077362A1 (CORTEVA AGRISCIENCE LLC, priority 2019, published 2023).
Read-outs that look alike come from different tables or passages of the source.

Legend:
[1] = test system: Cabbage Looper (Trichoplusia ni) ("CL"), second instar larvae; assay: Bioassay on cabbage looper (CL), 128-well diet tray assay; type: in vivo; conditions: for pest or weed control at 50 µg/cm2: Trichoplusia ni; for CL rating: Table ABC, species CL, C = not tested, D = no activity noticed
In short: (§1)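 Read-out: percent larval mortality per well, averaged over 8 wells. Incubation 25° C., 14:10 L:D photoperiod, 5–7 days, trays sealed with clear adhesive cover.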

[2] = test system: Beet Armyworm (Spodoptera exigua) ("BAW"), second instar larvae; assay: Bioassay on beet armyworm (BAW), 128-well diet tray assay; type: in vivo; conditions: for pest or weed control at 50 µg/cm2: Spodoptera exigua; for BAW rating: Table ABC, species BAW, C = not tested, D = no activity noticed
In short: as §1

[3] = read-out: CL (Biological Results, rating)
[4] = read-out: BAW (Biological Results, rating)

SMILES | pest or weed control at 50 µg/cm2 ([1]; read-out: CL rating) | pest or weed control at 50 µg/cm2 ([2]; read-out: BAW rating) | pest or weed control at 50 µg/cm2 [1, 3] | pest or weed control at 50 µg/cm2 [2, 4] | also measured
Cc1ccc(C(C)C)c(N2C(=O)CS/C2=N\C(=O)Nc2ccc(-c3nnc(-c4ccc(OC(F)(F)F)cc4)s3)cc2F)c1 [Compound J499, (Z)-1-(2-Fluoro-4-(5-(4-(trifluoromethoxy)phenyl)-1,3,4-thiadiazol-2-yl)phenyl)-3-(3-(2-isopropyl-5-methylphenyl)-4-oxothiazolidin-2-ylidene)urea] | 50 to 100% | 50 to 100% | – | – | –
COc1ccc(COCC(F)(F)F)c(N2C(=O)CS/C2=N\C(=O)Nc2ccc(-n3cnc(-c4ccc(OC(F)(F)F)cc4)n3)cc2F)c1 [Compound J691, (Z)-1-(2-Fluoro-4-(3-(4-(trifluoromethoxy)phenyl)-1H-1,2,4-triazol-1-yl)phenyl)-3-(3-(5-methoxy-2-((2,2,2-trifluoroethoxy)methyl)phenyl)-4-oxothiazolidin-2-ylidene)urea] | 50 to 100% | 50 to 100% | – | – | –
Cc1cc(-c2ncn(-c3ccc(OC(F)(F)F)cc3)n2)ccc1NC(=O)/N=C1\SCC(=O)N1c1cc(N(C)C)ccc1OCCC(F)(F)F [Compound J102, (Z)-1-(3-(5-(Dimethylamino)-2-(3,3,3-trifluoropropoxy)phenyl)-4-oxothiazolidin-2-ylidene)-3-(2-methyl-4-(1-(4-(trifluoromethoxy)phenyl)-1H-1,2,4-triazol-3-yl)phenyl)urea] | – | – | 50 to 100% | 50 to 100% | –
Cc1ccc(C(C)C)c(N2C(=O)CS/C2=N\C(=O)Nc2ccc(-c3ncn(-c4ccc(OC(F)(F)F)cc4)n3)cc2C#N)c1 [Compound J227, (Z)-1-(2-cyano-4-(1-(4-(trifluoromethoxy)phenyl)-1H-1,2,4-triazol-3-yl)phenyl)-3-(3-(2-isopropyl-5-methylphenyl)-4-oxothiazolidin-2-ylidene)urea] | – | – | 50 to 100% | 50 to 100% | –
CCCOc1ccc(C)cc1N1C(=O)CS/C1=N\C(=O)Nc1ccc(-c2ncn(-c3ccc(OC(F)(F)F)cc3)n2)cc1F [Compound J125, (Z)-1-(2-Fluoro-4-(1-(4-(trifluoromethoxy)phenyl)-1H-1,2,4-triazol-3-yl)phenyl)-3-(3-(5-methyl-2-propoxyphenyl)-4-oxothiazolidin-2-ylidene)urea] | – | – | 50 to 100% | 50 to 100% | –
Cc1cc(-c2cn(-c3ccc(S(F)(F)(F)(F)F)cc3)cn2)ccc1NC(=O)/N=C1\SCC(=O)N1c1cc(N(C)C)c(F)cc1C(C)C [Compound J619, (Z)-1-(3-(5-(Dimethylamino)-4-fluoro-2-isopropylphenyl)-4-oxothiazolidin-2-ylidene)-3-(2-methyl-4-(1-(4-(pentafluoro-λ^6-sulfaneyl)phenyl)-1H-imidazol-4-yl)phenyl)urea] | 50 to 100% | 50 to 100% | – | – | –
Cc1ccc(COCC(F)F)c(N2C(=O)CS/C2=N\C(=O)Nc2ccc(-c3ncn(-c4ccc(OC(F)(F)F)cc4)n3)cc2C)c1 [Compound J420] | – | – | – | – | CL rating [1]: A (50-100); BAW rating [2]: A (50-100)
Cc1ccc(OCC(F)(F)F)c(N2C(=O)CS/C2=N\C(=O)Nc2ccc(-c3ncn(-c4ccc(OC(F)(F)F)cc4)n3)cc2C(F)(F)F)c1 [Compound J115, (Z)-1-(3-(5-Methyl-2-(2,2,2-trifluoroethoxy)phenyl)-4-oxothiazolidin-2-ylidene)-3-(4-(1-(4-(trifluoromethoxy)phenyl)-1H-1,2,4-triazol-3-yl)-2-(trifluoromethyl)phenyl)urea] | – | – | 50 to 100% | 50 to 100% | –
Cc1ccc(C(C)C)c(N2C(=O)CS/C2=N\C(=O)Nc2ccc(-c3ncn(-c4ccc(OC(F)(F)C(F)(F)F)cc4)n3)c(C)c2)c1 [Compound J2] | – | – | 50 to 100% | 50 to 100% | –
CCCc1ccc(C)cc1N1C(=O)CS/C1=N\C(=O)Nc1ccc(-c2cn(-c3ccc(S(F)(F)(F)(F)F)cc3)cn2)cc1F [Compound J590, (Z)-1-(2-Fluoro-4-(1-(4-(pentafluoro-λ^6-sulfaneyl)phenyl)-1H-imidazol-4-yl)phenyl)-3-(3-(5-methyl-2-propylphenyl)-4-oxothiazolidin-2-ylidene)urea] | 50 to 100% | 50 to 100% | – | – | –
Cc1ccc(OCCC(F)(F)F)c(N2C(=O)CS/C2=N\C(=O)Nc2ccc(-c3cn(-c4ccc(C(F)(F)F)cn4)cn3)cc2F)c1 [Compound J484, (Z)-1-(2-Fluoro-4-(1-(5-(trifluoromethyl)pyridin-2-yl)-1H-imidazol-4-yl)phenyl)-3-(3-(5-methyl-2-(3,3,3-trifluoropropoxy)phenyl)-4-oxothiazolidin-2-ylidene)urea] | 50 to 100% | 50 to 100% | – | – | –
Cc1ccc(Cc2ccc(F)cc2)c(N2C(=O)CS/C2=N\C(=O)Nc2ccc(-c3ncn(-c4ccc(OC(F)(F)F)cc4)n3)cc2F)c1 [Compound J674, (Z)-1-(2-Fluoro-4-(1-(4-(trifluoromethoxy)phenyl)-1H-1,2,4-triazol-3-yl)phenyl)-3-(3-(2-(4-fluorobenzyl)-5-methylphenyl)-4-oxothiazolidin-2-ylidene)urea] | 50 to 100% | 50 to 100% | – | – | –
Cc1ccc(N2C(=O)CS/C2=N\C(=O)Nc2ccc(-c3ncn(-c4ccc(OC(F)(F)F)cc4)n3)cc2F)c(COCC(F)(F)F)c1 [Compound J438] | – | – | – | – | CL rating [1]: A (50-100); BAW rating [2]: A (50-100)
Cc1ccc(COCC(F)(F)F)c(N2C(=O)CS/C2=N\C(=O)Nc2ccc(-c3cn(-c4ccc(S(F)(F)(F)(F)F)cc4)cn3)cc2F)c1 [Compound J598, (Z)-1-(2-Fluoro-4-(1-(4-(pentafluoro-λ^6-sulfaneyl)phenyl)-1H-imidazol-4-yl)phenyl)-3-(3-(5-methyl-2-((2,2,2-trifluoroethoxy)methyl)phenyl)-4-oxothiazolidin-2-ylidene)urea] | 50 to 100% | 50 to 100% | – | – | –
CC(C)c1ccc(N(C)C)cc1N1C(=O)CS/C1=N\C(=O)Nc1ccc(-c2cn(-c3ccc(C(F)(F)F)cn3)cn2)cc1 [Compound J520, (Z)-1-(3-(5-(Dimethylamino)-2-isopropylphenyl)-4-oxothiazolidin-2-ylidene)-3-(4-(1-(5-(trifluoromethyl)pyridin-2-yl)-1H-imidazol-4-yl)phenyl)urea] | 50 to 100% | 50 to 100% | – | – | –
N#CC(CNC(=O)/N=C1\SCC(=O)N1c1cc(Cl)ccc1C(F)(F)F)c1ccc(-c2ncn(-c3ccc(OC(F)(F)F)cc3)n2)cc1 (stereo not shown) [Compound H8, (Z)-1-(3-(5-chloro-2-(trifluoromethyl)phenyl)-4-oxothiazolidin-2-ylidene)-3-(2-cyano-2-(4-(1-(4-(trifluoromethoxy)phenyl)-1H-1,2,4-triazol-3-yl)phenyl)ethyl)urea] | – | – | 50 to 100% | 50 to 100% | –
CCCOc1ccc(C)cc1N1C(=O)CS/C1=N\C(=O)Nc1ccc(-c2ncn(-c3ccc(S(F)(F)(F)(F)F)cc3)n2)cc1F [Compound J541] | 50 to 100% | 50 to 100% | – | – | –
CN(C)c1ccc(OCCC(F)(F)F)c(N2C(=O)CS/C2=N\C(=O)Nc2ccc(-c3ncn(-c4ccc(OC(F)(F)F)cc4)n3)cc2C(F)(F)F)c1 [Compound J118, (Z)-1-(3-(5-(Dimethylamino)-2-(3,3,3-trifluoropropoxy)phenyl)-4-oxothiazolidin-2-ylidene)-3-(4-(1-(4-(trifluoromethoxy)phenyl)-1H-1,2,4-triazol-3-yl)-2-(trifluoromethyl)phenyl)urea] | – | – | 50 to 100% | 50 to 100% | –
Cc1ccc(C(C)C)c(N2C(=O)CS/C2=N\C(=O)Nc2ccc(-c3ncn(-c4ccc(OC(F)(F)F)cc4)n3)cc2C(F)(F)F)c1 [Compound J114, (Z)-1-(3-(2-Isopropyl-5-methylphenyl)-4-oxothiazolidin-2-ylidene)-3-(4-(1-(4-(trifluoromethoxy)phenyl)-1H-1,2,4-triazol-3-yl)-2-(trifluoromethyl)phenyl)urea] | – | – | 50 to 100% | 50 to 100% | –
Cc1ccc(COCC(F)(F)F)c(N2C(=O)CS/C2=N\C(=O)Nc2ccc(-c3ncn(-c4ccc(OCC(F)(F)F)cc4)n3)cc2F)c1 [Compound J764, (Z)-1-(2-Fluoro-4-(1-(4-(2,2,2-trifluoroethoxy)phenyl)-1H-1,2,4-triazol-3-yl)phenyl)-3-(3-(5-methyl-2-((2,2,2-trifluoroethoxy)methyl)phenyl)-4-oxothiazolidin-2-ylidene)urea] | 50 to 100% | 50 to 100% | – | – | –
Cc1ccc(C(C)C)c(N2C(=O)CS/C2=N\C(=O)Nc2ccc(-c3cn(-c4ccc(S(F)(F)(F)(F)F)cc4)cn3)cc2F)c1 [Compound J589, (Z)-1-(2-fluoro-4-(1-(4-(pentafluoro-λ^6-sulfaneyl)phenyl)-1H-imidazol-4-yl)phenyl)-3-(3-(2-isopropyl-5-methylphenyl)-4-oxothiazolidin-2-ylidene)urea] | 50 to 100% | 50 to 100% | – | – | –
COc1ccc(C(C)C)c(N2C(=O)CS/C2=N\C(=O)Nc2ccc(-c3ncn(-c4ccc(C(F)(F)F)cc4)n3)cc2OC)c1 [Compound J10, (Z)-1-(3-(2-Isopropyl-5-methoxyphenyl)-4-oxothiazolidin-2-ylidene)-3-(2-methoxy-4-(1-(4-(trifluoromethyl)phenyl)-1H-1,2,4-triazol-3-yl)phenyl)urea] | – | – | 50 to 100% | 50 to 100% | –
Cc1ccc(C(C)C)c(N2C(=O)CS/C2=N\C(=O)Nc2ccc(-c3nnc(-c4ccc(OC(F)(F)F)cc4)o3)cc2F)c1 [Compound J607, (Z)-1-(2-fluoro-4-(5-(4-(trifluoromethoxy)phenyl)-1,3,4-oxadiazol-2-yl)phenyl)-3-(3-(2-isopropyl-5-methylphenyl)-4-oxothiazolidin-2-ylidene)urea] | 50 to 100% | 50 to 100% | – | – | –
